The record followed here is patent US7662941B2, “Embryonic stem cell self maintenance and renewal reporter” (The Trustees of the University of Princeton - Princeton …, priority 2005, dated 2010).

Holding throughout (format): cell-based, mouse
Data set [1] deals with Nanog/GFP expression in NeFREC(g). The data set is described as follows: Chemical genomics screen in NeFREC(g), ES medium without LIF, Nanog/GFP by flow cytometry. The settings on record: for Effect on RA-induced Nanog/GFP downregulation: agent plus RA compared to RA-induced differentiation condition; for Effect on Nanog/GFP expression / ES cell differentiation induced by omission of LIF: compound alone in ES medium without LIF, one and two days. As for the experimental part: To validate the use of NeFRECs as an easy reporter cell in chemical genomics proof-of-principle studies were performed with several compounds that are known to show effects on ES cell self-renewal and differentiation or were previously tested in early embryonic development and cancer therapy. The compounds included in the experiment were RA (Sigma, Cat# R2625), Trichostatin A (TSA, Sigma, Cat# T8552, a histone deacetylase (HDAC) inhibitor), Ly294002, (CALBIOCHEM, Cat# 440202, a phosphatidylinositol 3-kinase (PI3K) inhibitor), Rapamycin (Rapa, Sigma, Cat# R0395, an inhibitor of mTOR), PD98059 (CALBIOCHEM, Cat# 513000, a MAP kinase (MAPK) inhibitor), 5-aza-2′-deoxycytidine (AZA, Sigma, Cat# A3656, an inhibitor of DNA methytransferases).
(§1) For the chemical genomics screen 2.5×10^4 cells in 0.5 ml ES medium were plated per 24-well the day before treatment. Medium without LIF supplemented with the different compounds at indicated concentrations was added 24 hrs post-plating. Medium was changed daily. Nanog/GFP levels for each sample were measured by flow cytometry one and two days post drug treatment. Average percentages of Nanog/GFP^+ cells were calculated from duplicate samples (FIG. 10A).

The next data set concerns NeFREC(g). The experiment in a line: Cell morphology of NeFREC(g) after compound treatment. The settings on record: day 2 of treatment. As for the experimental part: Microscopy. Microscopy was performed on a Nikon Eclipse TE2000-U microscope with appropriate filter sets, CoolSnapES (black and white/fluorescence) and DXM1200F (color) cameras, and MetaView (black and white/fluorescence) and ACT (color) image-processing software.
as §1
Addition of RA, LY294002 or PD98059 to the cultures has different effects on ES cell colony morphology.

Data set [2] relates to Nanog/GFP expression in NeFREC(g). The experiment in a line: Combinatorial RA and TSA treatment of NeFREC(g), Nanog/GFP by flow cytometry. On the procedure:
In brief, 2.5×10^4 cells were plated in 0.5 ml ES medium. The HDAC inhibitor TSA was added at various concentrations 24 hours post-plating. One day after TSA treatment, medium was changed to ES medium without LIF plus 1.0 μM RA (indicated as day 0). Medium was changed and Nanog/GFP expression monitored by flow cytometry on a daily basis. […] 75 nM TSA rescued Nanog/GFP levels by more than 50% by day 2.
On the technique in general: Flow cytometry measures light scatter and fluorescence of single cells or particles in a stream.

Another data set deals with ES cells.
Data set [3] has as its system Nanog/GFP expression in NeFREC(g). The experiment in a line: Nanog/GFP expression of NeFREC(g) clones in response to RA, flow cytometry. As for the experimental part: ES cell growth and differentiation. ES cells were maintained on gelatin-coated tissue culture plates in Dulbecco's Modified Eagels Medium (DMEM; Invitrogen/Gibco) supplemented with 15% fetal calf serum (FCS), 1 mM sodium pyruvate, 2 mM L-glutamine (Invitrogen/Gibco), 0.1 mM non-essential amino acids (Invitrogen/Gibco), 100 U/ml penicillin, 100 μg/ml streptomycin, 1×10^−4 M 2-Mercaptoethanol (2-ME) and 1000 U/ml leukemia inhibitory factor (LIF; ESGROW, Chemicon), henceforth referred to as ES medium. Medium was changed every day and cells were split every second day.
One day prior to differentiation cells were plated on gelatinized culture dishes in the aforementioned medium. Differentiation was induced either by removal of LIF or removal of LIF and addition of retinoic acid (RA, Sigma) if grown in ES medium or either LIF or Bmp4 or both if grown in SF-ES medium.
Cell surface staining, FACS analysis and Cell Sorting. Standard conditions were used to stain the cells. Cell suspensions were analyzed on a FACS Sort (Becton Dickinson). Cell sorting was performed using a FacsVantage with DiVa Software (Becton Dickinson).
NeFREC(g) clones. To determine the dynamics of Nanog/GFP expression of NeFREC(g) clones in response to RA, 4 individual clones (numbers 4, 9, 20 and 23) were analyzed in detail (FIG. 6a upper panel). 2.5×10^4 cells were plated in 0.5 ml ES medium the day before RA treatment. ES medium without LIF and supplemented with 10 μM RA (10 mM stock dissolved in 100% ethanol) was added to cells 24 hours post-plating (indicated as day 0). Nanog/GFP levels in treated cells were measured daily, day 0 to day 3, by flow cytometry. […] By day 3, less than 5% cells remain Nanog/GFP+ in response to RA treatment. […] Eef1b gene expression was used as loading control (5′-[…]-3′ (SEQ ID NO:17) and 5′-[…]-3′ (SEQ ID NO:18)).
To further determine the dynamics of Nanog/GFP expression of NeFREC(g), a RA dosage response experiment, ranging from 0.2 to 10 μM RA, was performed (FIG. 6B). An RA dosage of 0.2 μM is sufficient to induces a rapid and significant downregulation of Nanog/GFP expression in NeFREC(g). Omitting LIF from the ES medium also induces loss of Nanog/GFP expression in these cells at a slower rate compared to RA treatment. Forty percent of the cells still remain Nanog/GFP^+ by day 3. A RA pulse experiment was performed to determine the time required to initiate Nanog/GFP downregulation (i.e. differentiation) in response to 1 μM of RA (FIG. 6C). 2.5×10^4 cells were plated initially in 0.5 ml media per well in a 24-well plate the day before treatment. Cells were pulsed with 1 μM RA in ES medium without LIF for the indicated time periods and then changed to fresh ES medium. Nanog/GFP expression was measured after one day and two days of RA treatment.

Data set [4] shares this test system. The data set is described as follows: Transient RNA shRNA transfection of NeFREC(g), Nanog/GFP by flow cytometry. The settings on record: for Nanog/GFP expression (NeFREC(g) bearing Nanog/GFP): by three days, from 90.9%. On the procedure:
(§2) RNA shRNA Transfection. For transfection of RNA shRNA, cells were harvested, washed with DMEM and resuspended at 2×10^5/ml in medium without penicillin and streptomycin. 250 μl of medium without penicillin and streptomycin was added per gelatin pre-coated well of a 24-well culture plate. In order to prepare the RNA shRNA transfection mixture per well, 10-20 μl of RNA shRNA [1 pmole/μl] was mixed with OptiMEM (Invitrogen/Gibco) in a final volume of 50 μl. In a separate tube, 1 μl Lipofectamine2000 (Invitrogen) was added to 49 μl of OptiMEM per sample. The RNA shRNA/OptiMEM and Lipofectamine/OptiMEM solutions were combined, mixed, incubated for 20 min at room temperature and added to the well. Then, 250 μl of cell solution, i.e., 5×10^4 cells/well, were added and the 24-well plate incubated in a humidified chamber in 5% CO2/air mixture at 37° C. Twenty-four hours after transfection, medium was replaced with appropriate medium with penicillin and streptomycin.
RNA shRNA against GFP (5′-[…] UAGACGUUGUGGCUGU-3′; SEQ ID NO:31) was transfected into NeFREC(g) as described in Example 1. Ten pmole of RNA shRNA against GFP reduced Nanog/GFP reporter expression in NeFREC(g) from 85.8% down to 18% 72 hours post-transfection (FIG. 11A). The reduction in Nanog/GFP fluorescence is RNA shRNA concentration-dependent.
The transcription factor Pou5f1 is required for ES cell maintenance and when reduced by more than 50% of wild-type levels results in differentiation towards trophectodermal cells (Niwa et al., 2000 Nat. Genet. 24:372-376). Therefore, 10 pmole of RNA shRNA against Pou5f1 (5′-[…] UAAGGCUGAGCUGCAA-3′; SEQ ID NO:32) was transfected into NeFREC(g).

The subject of data set [5] is Nanog/GFP expression in NeFREC(g)-SF. The experiment in a line: Transient RNA shRNA transfection of NeFREC(g)-SF, Nanog/GFP by flow cytometry. Particulars: NeFREC(g)-SF in SF-ES medium, by day 2; from 94.8%. On the procedure:
Alternatively, ES cells were maintained on gelatin-coated tissue culture plates in a 1:1 mixture of Neurobasal with N2-supplement (Invitrogen/Gibco) and DMEM/F12 with B27 (Invitrogen/Gibco) supplemented with 10% fraction V bovine serum albumin (BSA; Sigma) and 100 U/ml penicillin, 100 μg/ml streptomycin, 1×10^−4 M 2-ME), 1000 U/ml LIF and 10 ng/ml bone morphogenic protein (Bmp) 4 (R&D Systems), henceforth referred to as SF-ES medium. Medium was changed every day and cells split every second day.
as §2, with “Twenty-four hours after transfection, medium was replaced with appropriate medium with penicillin and streptomycin.” left out

Where two headings read alike, the source gives them in different places.

For `COc1cccc(-c2cc(=O)c3ccccc3o2)c1N` [PD98059], in data set [1], the “Effect on RA-induced Nanog/GFP downregulation” value was “delay RA-induced Nanog/GFP downregulation” and the “Effect on Nanog/GFP expression / ES cell differentiation induced by omission of LIF” value is given as “blocked or delayed ES cell differentiation”. Besides, in the data set with NeFREC(g), the “ES cell colony morphology” value was “look more like NeFREC(g) cultured in ES medium alone”.
Consider `CC(/C=C/C(=O)NO)=C\[C@@H](C)C(=O)c1ccc(N(C)C)cc1` [TSA, Trichostatin A], for which the “Rescue of Nanog/GFP levels” value in data set [2] (75 nM TSA, then 1.0 μM RA, by day 2) is listed as “more than 50%”. The “TSA concentrations at which RA-induced downregulation of Nanog/GFP is markedly reduced” value in data set [2] (TSA 24 h, then ES medium without LIF plus 1.0 μM RA) is on record as “higher than 75 nM”. In data set [1], the “Effect on RA-induced Nanog/GFP downregulation” value was “delay RA-induced Nanog/GFP downregulation” and the “Effect on Nanog/GFP expression / ES cell differentiation induced by omission of LIF” value is “blocked or delayed ES cell differentiation”. Further, the “Concentration sufficient to kill all ES cells” value in the data set on ES cells (by day 3 of culture) was determined as 300 nM. The “Cell death as indicated by floating cells in culture” value with ES cells (too high concentrations) is listed as “can cause cell death at too high concentrations”.
For `Nc1ncn([C@H]2C[C@H](O)[C@@H](CO)O2)c(=O)n1` [AZA, 5-aza-2′-deoxycytidine], in data set [1], the “Effect on RA-induced Nanog/GFP downregulation” value is listed as “delay RA-induced Nanog/GFP downregulation” and the “Effect on Nanog/GFP expression / ES cell differentiation induced by omission of LIF” value was “blocked or delayed ES cell differentiation”. In addition, the “Cell death as indicated by floating cells in culture” value in the data set with ES cells is “can cause cell death at too high concentrations”.
With `CC1=C(/C=C/C(C)=C/C=C/C(C)=C/C(=O)O)C(C)(C)CCC1` [RA, retinoic acid], the “cells remaining Nanog/GFP+” value in data set [3] (10 μM RA, ES medium without LIF, by day 3) is given as “less than 5%”. The “GFP levels after RA pulse” value in data set [3] (24-hour treatment with 1 μM RA in ES medium without LIF, then fresh ES medium, from more than 90%) came to 45%. For the same molecule, the “NeFREC(g)s in which the differentiated state is irreversibly fixed” value in data set [3] (after 24-hour differentiation pulse, 1 μM RA) is on record as “about 50%”. The “RA dosage sufficient to induce rapid and significant downregulation of Nanog/GFP expression” value in data set [3] (dosage response 0.2 to 10 μM RA) was determined as 0.2 µM.

B1: RNA shRNA against GFP: RNA shRNA against GFP, SEQ ID NO:31 (nucleic acid)
chain: AGCCACAACGUCUAUAUCAUGGCCGACAAGUUGGCUUGUCGGCCAUGAUAUAGACGUUGUGGCUGU
modifications: siRNA; RNA, backbone not given here; hairpin shRNA transfected as RNA
As for B1, in data set [4] (0 to 10 pmole RNA shRNA), the “Concentration dependence of reduction in Nanog/GFP fluorescence” value was “concentration-dependent”. The Nanog/GFP reporter expression in data set [4] (10 pmole RNA shRNA, 72 hours post-transfection, from 85.8%) amounted to 18%. In data set [4] (10 pmole RNA shRNA), the “Nanog/GFP expression (NeFREC(g) bearing Nanog/GFP)” value was 21.2%. For the same molecule, the Nanog/GFP levels in data set [5] was 14.1%.

B2: RNA shRNA against Pou5f1: RNA shRNA against Pou5f1, SEQ ID NO:32 (nucleic acid)
chain: GCAGCUCAGCCUUAAGAACAUGUGUAAGCUUUGGAGCUUACACAUGUUCUUAAGGCUGAGCUGCAA
modifications: siRNA; RNA, backbone not given here; hairpin shRNA transfected as RNA
With B2, in data set [4] (10 pmole RNA shRNA), the “Nanog/GFP expression (NeFREC(g) bearing Nanog/GFP)” value came out at 73.1%. Further, in data set [5], the Nanog/GFP levels amounted to 68.5%.
